Data published in PubChem BioAssay (NCI).
Several values for one entry are separate records, joined by “and”; a condition that tells them apart may be missing. Equal values may be shown once.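 Compound exposure: 48 hours, 5 concentrations, 96-well plates. The concentration for 50% growth inhibition is given as GI50. TGI marks complete inhibition of growth.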

Legend:
Experiment in all cases: NCI anticancer screen, dose series, 48 h
RPMI-8226 leukemia = test system: RPMI-8226 leukemia
K-562 leukemia = test system: K-562 leukemia
MDA-MB-435 = test system: MDA-MB-435
UACC-257 melanoma = test system: UACC-257 melanoma
HT29 colon = test system: HT29 colon
BT-549 breast = test system: BT-549 breast
OVCAR-3 ovarian = test system: OVCAR-3 ovarian
SW-620 colon = test system: SW-620 colon
M14 melanoma = test system: M14 melanoma
HCC-2998 colon = test system: HCC-2998 colon

Compound	TGI (RPMI-8226 leukemia) [µM]	TGI (K-562 leukemia) [µM]	TGI (MDA-MB-435) [µM]	TGI (UACC-257 melanoma) [µM]	TGI (HT29 colon) [µM]	TGI (BT-549 breast) [µM]	TGI (OVCAR-3 ovarian) [µM]	TGI (SW-620 colon) [µM]	TGI (M14 melanoma)	GI50 (RPMI-8226 leukemia) [µM]	GI50 (K-562 leukemia) [µM]	GI50 (HCC-2998 colon)	TGI (HCC-2998 colon) [µM]	GI50 (HT29 colon)	GI50 (BT-549 breast)	GI50 (SW-620 colon) [µM]	GI50 (M14 melanoma)	GI50 (MDA-MB-435) [µM]	GI50 (OVCAR-3 ovarian) [µM]	GI50 (UACC-257 melanoma) [µM]
CC(C)C(Br)C(=O)NCC(=O)O (configuration not stated)	> 100	> 100	> 100	> 100	> 100	> 100	> 100	> 100	> 100 µM	–	–	–	–	–	–	–	–	–	–	–
O=C(O)CCN1C(=S)CSC1=S	> 100	> 100	> 100	> 100	> 100	> 100	> 100	> 100	> 100 µM	–	–	–	–	–	–	–	–	–	–	–
COc1ccc(CN2c3ccccc3Sc3ccccc32)cc1O	35.5	26.6	–	–	6.4	17.1	–	17.7	18.6 µM	0.483	0.365	0.422 µM	10.7	0.724 µM	0.773 µM	0.504	0.383 µM	–	–	–
CCOC1=C/C(=N\Nc2ccc([N+](=O)[O-])cc2)CCC1	> 100	> 100	> 100	> 100	67.9	43.8	> 100	> 100	> 100 µM	–	–	–	–	–	–	–	–	–	–	–
O=C(CC1(O)CCCCC1)OC1CCCC1	–	–	> 100	> 100	> 100	> 100	> 100	–	> 100 µM	–	–	–	–	–	–	–	–	–	–	–
Fc1ccc(-c2ncn(C3CCNCC3)c2-c2ccnc(Oc3ccc(Cl)cc3)n2)cc1	15.3	11.2	8.21	–	6.68	18.8	7.9	7.3	9.09 µM	5.44	4.7	4.12 µM	7.93	3.25 µM	5.05 µM	3.74	4.65 µM	4.04	4.09	–
Nc1ccccc1SC(/C=C/NNC1=NC(c2ccccc2)C(c2ccccc2)=NN1)c1ccccc1 (configuration not stated)	10.1	35.7	–	28.1	34.8	–	26.1	29.1	25.3 µM	–	–	–	30.5	–	–	–	–	–	–	–
C=C(CN1CCN(c2ccccn2)CC1)c1ccc(C(=O)Nc2ccccc2N)cc1	> 50	> 50	1.4	> 50	–	37.4	4.39	> 50	> 50 µM	1.6	0.956	0.664 µM	1.94	–	3.95 µM	1.71	8.48 µM	0.522	1.25	2.32
BrCc1ccc2ccc3ccc(CBr)nc3c2n1	> 100	> 28.4	16.6	14.1	4.61	–	3.43	5.86	8.79 µM	–	–	–	8.73	–	–	–	–	–	–	–
CN1C2C=CC(=O)C1C(C#N)C2 (configuration not stated)	–	> 100	> 100	–	> 100	> 100	> 100	> 100	89.7 µM and > 100 µM	–	–	32.4 µM and 74.9 µM	> 100	31.8 µM and 90.5 µM	34.5 µM and 93.1 µM	–	29.5 µM and 69.1 µM	–	–	–
